Experimental data published in patent publication US12486280B2, “CDK inhibitors and uses thereof” (California Institute of Technology, priority 2018, dated 2025).
Converted amounts (≈) assume the structure as drawn. Where two headings read alike, the source gives them in different places.

Assays:
[1] = Compound Solubility Assay (kinetic solubility); assay type: physicochemical
Protocol: The relative kinetic solubility of each compound was determined at both low (1.2) and neutral (7.4) pH. Compounds were prepared at 10 mM stocks. […] Compounds were allowed to shake at room temperature for 24 hours in 50 mM phosphate buffer pH 7.4, or in SGF buffer pH 1.2 at 37° C. for 24 hours.

[2] = system: drug-resistant cell lines of Table 2 (NCI-H1437, OV207, HCC1806, NCI-H2172); test: Cell Line Growth Retardation Assay, resistant cohort; assay type: cell-based, human; conditions: Homo sapiens, […], geometric mean over resistant cohort; 6 days growth; read-out: AvgResIC50
Outline: (§1)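 Cells rested 24 h, then exposed 6 days to compound at 10, 2, 0.4, 0.08, 0.016 and 0.0032 μM; counted by imaging on day 0 and day 6. Growth inhibition as ratio of population doublings versus vehicle; IC50 from curve fits, cohort values as geometric means.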

CDK4 = CDK4 (Homo sapiens (Human), UniProt P11802); test: Cdk4 and 6 Enzymatic Inhibition Assay (radiometric 33PanQinase, Ki determination); assay type: biochemical
Sequence of CDK4 (P11802 whole entry): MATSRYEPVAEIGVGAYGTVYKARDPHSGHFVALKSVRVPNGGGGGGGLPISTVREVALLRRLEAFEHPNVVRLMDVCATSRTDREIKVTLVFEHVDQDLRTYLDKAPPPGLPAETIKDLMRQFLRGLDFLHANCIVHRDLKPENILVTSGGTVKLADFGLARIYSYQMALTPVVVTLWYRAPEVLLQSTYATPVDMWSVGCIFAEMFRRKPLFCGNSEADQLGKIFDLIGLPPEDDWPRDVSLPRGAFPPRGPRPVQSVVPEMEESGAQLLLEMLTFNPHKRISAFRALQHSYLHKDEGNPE
Sequence of CDK4 (P24385 whole entry partner): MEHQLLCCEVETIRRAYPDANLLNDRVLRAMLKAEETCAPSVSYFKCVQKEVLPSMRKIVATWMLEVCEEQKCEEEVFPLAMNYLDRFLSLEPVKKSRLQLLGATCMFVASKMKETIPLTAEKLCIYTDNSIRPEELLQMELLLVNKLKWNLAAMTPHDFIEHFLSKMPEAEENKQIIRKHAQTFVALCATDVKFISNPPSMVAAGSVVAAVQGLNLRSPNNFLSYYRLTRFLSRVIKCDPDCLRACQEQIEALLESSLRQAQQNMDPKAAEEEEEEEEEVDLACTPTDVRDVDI
Outline: (§2)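 Radiometric 33PanQinase assay in 70 mM HEPES-NaOH pH 7.5 with 3 mM MgCl2, 3 mM MnCl2, [γ-33P]-ATP, kinase and substrate; 60 min at 30° C, 1% DMSO final. Ten final concentrations from 2×10^−6 M to 6×10^−11 M; 33Pi incorporation counted by scintillation after H3PO4 stop.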

CDK6 = CDK6 (Homo sapiens (Human), UniProt Q00534); test: as above; assay type: biochemical
Sequence of CDK6 (Q00534 whole entry): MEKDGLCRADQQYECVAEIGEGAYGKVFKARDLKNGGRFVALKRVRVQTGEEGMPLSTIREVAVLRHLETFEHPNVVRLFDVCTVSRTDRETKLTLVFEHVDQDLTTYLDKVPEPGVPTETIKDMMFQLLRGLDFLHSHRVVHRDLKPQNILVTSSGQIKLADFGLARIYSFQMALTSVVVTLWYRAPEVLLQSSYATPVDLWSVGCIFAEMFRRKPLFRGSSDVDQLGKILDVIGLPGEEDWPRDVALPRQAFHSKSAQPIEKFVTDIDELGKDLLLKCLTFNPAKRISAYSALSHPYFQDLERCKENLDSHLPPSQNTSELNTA
Sequence of CDK6 (P24385 whole entry partner): as the sequence (P24385 whole entry partner) above
Outline: as §2

[3] = Caco-2 Assay (Papp A to B); conditions: human, Caco-2, pH 7.4
Protocol: The degree of bi-directional human intestinal permeability for compounds was estimated using a Caco-2 cell permeability assay. Caco-2 cells were seeded onto polyethylene membranes in 96-well plates. The growth medium was refreshed every 4 to 5 days until cells formed a confluent cell monolayer. HBSS with 10 mM HEPES at pH 7.4 was used as the transport buffer. Compounds were tested at 2 μM bi-directionally in duplicate. Digoxin, nadolol and metoprolol were included as standards. Digoxin was tested at 10 μM bi-directionally in duplicate, while nadolol and metoprolol were tested at 2 μM in the A to B direction in duplicate. The final DMSO concentration was adjusted to less than 1% for all experiments. The plate was incubated for 2 hours in a CO2 incubator at 37° C., with 5% CO2 at saturated humidity. After incubation, all wells were mixed with acetonitrile containing an internal standard, and the plate was centrifuged at 4,000 rpm for 10 minutes. 100 μL supernatant was collected from each well and diluted with 100 μL distilled water for LC/MS/MS analysis. Concentrations of test and control compounds in starting solution, donor solution, and receiver solution were quantified by LC/MS/MS, using peak area ratio of analyte/internal standard. The apparent permeability coefficient Papp (cm/s) was calculated using the equation: Papp=(dCr/dt)×Vr/(A×C0) Where dCr/dt is the cumulative concentration of compound in the receiver chamber as a function of time (μM/s); Vr is the solution volume in the receiver chamber (0.075 mL on the apical side, 0.25 mL on the basolateral side); A is the surface area for the transport, which is 0.0804 cm^2 for the area of the monolayer; C0 is the initial concentration in the donor chamber (μM).

[4] = system: drug-sensitive cell lines of Table 2 (EFM-19, MDA-MB-453, T-47D, ZR-75-1, NCI-H441, OVTOKO, NCI-H1838); test: Cell Line Growth Retardation Assay, sensitive cohort; assay type: cell-based, human; conditions: for IC50: Homo sapiens, geometric mean over sensitive cohort, 6 days growth, read-out: AvgSensIC50; for Ther Window: average IC50 drug-resistant group divided by average IC50 drug-sensitive group
Outline: as §1

hERG potassium channels = hERG potassium channels (Homo sapiens (Human), UniProt Q12809); test: hERG Inhibition Assay (QPatch automated patch clamp, CHO cells); conditions: percent of control current
Sequence of hERG potassium channels (Q12809 whole entry): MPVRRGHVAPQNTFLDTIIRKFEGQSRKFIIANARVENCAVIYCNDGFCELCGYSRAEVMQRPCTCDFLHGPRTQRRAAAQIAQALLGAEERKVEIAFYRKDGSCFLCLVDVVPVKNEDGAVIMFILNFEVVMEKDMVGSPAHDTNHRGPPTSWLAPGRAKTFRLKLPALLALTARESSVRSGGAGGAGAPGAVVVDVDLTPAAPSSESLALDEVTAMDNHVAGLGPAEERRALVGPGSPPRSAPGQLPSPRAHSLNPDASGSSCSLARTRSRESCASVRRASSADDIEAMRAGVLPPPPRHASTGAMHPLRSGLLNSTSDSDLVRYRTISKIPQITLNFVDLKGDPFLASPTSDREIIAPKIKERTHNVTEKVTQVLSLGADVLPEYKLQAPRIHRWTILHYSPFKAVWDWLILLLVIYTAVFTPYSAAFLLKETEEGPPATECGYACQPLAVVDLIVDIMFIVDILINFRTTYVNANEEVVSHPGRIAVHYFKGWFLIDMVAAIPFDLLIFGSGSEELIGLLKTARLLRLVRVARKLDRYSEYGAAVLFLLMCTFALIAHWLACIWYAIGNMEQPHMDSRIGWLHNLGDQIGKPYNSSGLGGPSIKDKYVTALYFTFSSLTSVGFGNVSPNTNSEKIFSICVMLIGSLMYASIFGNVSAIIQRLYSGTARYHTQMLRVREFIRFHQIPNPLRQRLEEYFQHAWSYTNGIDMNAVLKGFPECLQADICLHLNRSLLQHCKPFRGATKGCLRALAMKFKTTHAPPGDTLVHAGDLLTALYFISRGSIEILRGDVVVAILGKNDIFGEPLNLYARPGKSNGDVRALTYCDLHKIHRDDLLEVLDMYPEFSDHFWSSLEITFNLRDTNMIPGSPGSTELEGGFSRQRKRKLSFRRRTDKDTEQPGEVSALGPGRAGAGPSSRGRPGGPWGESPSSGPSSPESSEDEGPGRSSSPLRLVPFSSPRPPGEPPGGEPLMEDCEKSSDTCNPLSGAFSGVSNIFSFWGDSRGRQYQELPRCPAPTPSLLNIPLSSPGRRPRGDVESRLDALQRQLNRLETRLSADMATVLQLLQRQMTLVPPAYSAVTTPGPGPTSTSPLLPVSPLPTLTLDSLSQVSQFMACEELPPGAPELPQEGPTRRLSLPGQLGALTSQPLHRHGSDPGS
Protocol: Effects of compounds on hERG potassium channel conductance was assessed using the automated patch clamp method QPatch^HTX. Compounds were prepared at 10 mM stocks. CHO cells stably expressing hERG potassium channels were used for this assay. Cells were cultured in a humidified and air-controlled 5% CO2) incubator at 37° C. Compound stocks and the positive control Amitriptyline were dissolved in 100% DMSO to make various solution concentrations. These solutions were further diluted into extracellular solution to achieve final concentrations for testing. The final DMSO concentration in extracellular solution was 0.30%. The hERG QPatch^HTX assay was conducted at room temperature.
The following voltage command protocol was used: • From the holding potential of −80 mV, the voltage was first stepped to −50 mV for 80 ms for leak subtraction, and then stepped to +20 mV for 4,800 ms to open hERG channels. • After which, the voltage was stepped back down to −50 mV for 5,000 ms, causing a “rebound” or tail current, which was measured and collected for data analysis. • Finally, the voltage was stepped back to the holding potential of −80 mV for 3,100 ms.
For each experiment, three additions of 5 μL of the vehicle were applied, followed by 30 runs of the voltage command protocol for a baseline period. Then, the ascending doses of each compound were added with three repetitions (5 μL of compound each time).

[5] = system: CYP isozymes (IC50s averaged over the isozymes); test: CYP Enzymatic Inhibition Assay in human liver microsomes
Protocol: Inhibition of various CYP isozymes was measured for each compound using a CYP enzyme inhibition assay in human liver microsomes (HLM). Compounds and standard inhibitors were prepared at a 100× working solutions. Substrates or PBS were added to the corresponding wells followed by addition of compounds, solvent or positive control working solution to corresponding wells. HLMs were added to the pre-warmed (37° C.) plate and mixed with NADPH cofactor for 10 minutes at 37° C. The reaction was terminated by adding 400 μL cold stop solution (200 ng/mL Tolbutamide and 200 ng/mL Labetalol in ACN). The plate was centrifuged at 4,000 rpm for 20 minutes, and supernatant was transferred to 100 μL HPLC water followed by LC/MS/MS analysis.

[6] = Measurement of Compound Metabolic Stability in hepatocytes
Protocol: The metabolic stability of compounds was determined in hepatocytes from mice and rats. Compounds were diluted to 5 μM in Williams' Medium E from 10 mM stock solutions. 10 μL of each compound was aliquoted into a well of a 96-well plate and reactions were started by aliquoting 40 μL of a 625,000 cells/mL suspension into each well. The plate was incubated at 37° C. with 5% CO2. At each corresponding time point, the reaction was stopped by quenching with ACN containing internal standards (IS) at a 1:3. Plates were shaken at 500 rpm for 10 min, and then centrifuged at 3,220×g for 20 minutes. Supernatants were transferred to another 96-well plate containing a dilution solution. Supernatants were analyzed by LC/MS/MS. Compound half-life was estimated using the following equation:

[7] = 50 mM phosphate buffer, pH 7.4, aqueous buffer, kinetic from dmso stock, read-out: KS7
[8] = simulated gastric fluid, kinetic from dmso stock, kinetic solubility, SGF buffer pH 1.2, 37° C., 24 hours, read-out: KS1

SMILES	solubility kinetic at 24 h [1, 7] [µM]	solubility kinetic at 24 h [1, 8] [µM]	IC50 [2] [nM]	Ki (CDK4) [nM]	Ki (CDK6) [nM]	Papp A→B at 2 h, 2 μM [3] [×10⁻⁶ cm/s]	IC50 [4] [nM]	IC50 at 10 min [5] [nM]	half-life at 1 μM [6] [min]	solubility kinetic at 24 h ([1]; kinetic solubility, SGF buffer pH 1.2, 37° C., 24 hours, read-out: KS1) [µM]	Ther Window [4]	hERG (hERG potassium channels) [%]
Cc1nc2c(F)cc(-c3nc(Nc4ccc(CN5CCNC(C)(C)C5)cn4)ncc3F)cc2n1C(C)C [Compound A44, N-(5-((3,3-dimethylpiperazin-1-yl)methyl)pyridin-2-yl)-5-fluoro-4-(4-fluoro-1-isopropyl-2-methyl-1H-benzo[d]imidazol-6-yl)pyrimidin-2-amine]	6.3 (≈ 3.19 µg/mL)	200 (≈ 101 µg/mL)	960	0.7	3.04	0.01	90	64200	81.2	–	10.25	10.84
COC(=O)N1CC[C@@]2(CN(Cc3ccc(Nc4ncc(F)c(-c5cc(F)c6nc(C)n(C(C)C)c6c5)n4)nc3)CCO2)C1 [Compound A33]	2.02 (≈ 1.2 µg/mL)	200 (≈ 119 µg/mL)	1000	3.42	20.1	3.94	150	18700	4.73	–	6.51	18.72
Cc1nc2c(F)cc(-c3nc(Nc4ccc(CN5CCN(C)C(C)(C)C5)cn4)ncc3F)cc2n1C(C)C [Compound A43, 5-fluoro-4-(4-fluoro-1-isopropyl-2-methyl-1H-benzo[d]imidazol-6-yl)-N-(5-((3,3,4-trimethylpiperazin-1-yl)methyl)pyridin-2-yl)pyrimidin-2-amine]	8.37 (≈ 4.36 µg/mL)	200 (≈ 104 µg/mL)	1000	0.77	4.13	0.27	70	90600	24.2	–	15.03	12.12
Cc1nc2c(F)cc(-c3nc(Nc4ccc(CN5CCO[C@]6(CCN(S(C)(=O)=O)C6)C5)cn4)ncc3F)cc2n1C(C)C [Compound A32]	1.6 (≈ 0.98 µg/mL)	200 (≈ 123 µg/mL)	1000	3.07	17.4	1.08	160	31500	4.24	–	6.24	14.35
CC(=O)N1CC[C@]2(CN(Cc3ccc(Nc4ncc(F)c(-c5cc(F)c6nc(C)n(C(C)C)c6c5)n4)nc3)CCO2)C1 [Compound A37, (S)-1-(9-((6-((5-fluoro-4-(4-fluoro-1-isopropyl-2-methyl-1H-benzo[d]imidazol-6-yl)pyrimidin-2-yl)amino)pyridin-3-yl)methyl)-6-oxa-2,9-diazaspiro[4.5]decan-2-yl)ethan-1-one]	109 (≈ 62.9 µg/mL)	197 (≈ 114 µg/mL)	810	1.6	6.86	0.39	260	43300	27	–	3.10	15.08

Second part, led by results:

solubility kinetic at 24 h [1, 7] [µM]	solubility kinetic at 24 h [1, 8] [µM]	IC50 [2] [nM]	Ki (CDK4) [nM]	Ki (CDK6) [nM]	Papp A→B at 2 h, 2 μM [3] [×10⁻⁶ cm/s]	IC50 [4] [nM]	IC50 at 10 min [5] [nM]	half-life at 1 μM [6] [min]	solubility kinetic at 24 h ([1]; kinetic solubility, SGF buffer pH 1.2, 37° C., 24 hours, read-out: KS1) [µM]	SMILES	Ther Window [4]	hERG (hERG potassium channels) [%]
1 (≈ 0.613 µg/mL)	–	860	2.18	12.8	2.62	110	21600	13.1	200.00 (≈ 123 µg/mL)	Cc1nc2c(F)cc(-c3nc(Nc4ccc(CN5CCO[C@](C)(CCN6CC(F)(F)C6)C5)cn4)ncc3F)cc2n1C(C)C [Compound A12, (R)—N-(5-((2-(2-(3,3-difluoroazetidin-1-yl)ethyl)-2-methylmorpholino)methyl)pyridin-2-yl)-5-fluoro-4-(4-fluoro-1-isopropyl-2-methyl-1H-benzo[d]imidazol-6-yl)pyrimidin-2-amine]	8.17	19.54
163 (≈ 96.6 µg/mL)	200 (≈ 119 µg/mL)	1000	2.04	7.39	0.05	70	37200	130	–	CCN(CC)CCC1(C)CN(Cc2ccc(Nc3ncc(F)c(-c4cc(F)c5nc(C)n(C(C)C)c5c4)n3)nc2)CCO1 (stereo in doubt) [Compound A3, (S)—N-(5-((2-(2-(diethylamino)ethyl)-2-methylmorpholino)methyl)pyridin-2-yl)-5-fluoro-4-(4-fluoro-1-isopropyl-2-methyl-1H-benzo[d]imidazol-6-yl)pyrimidin-2-amine]	13.77	26.68
–	196 (≈ 113 µg/mL)	900	1.6	11.9	0.11	210	20100	5.4	–	Cc1nc2c(F)cc(-c3nc(Nc4ccc(CN5CCO[C@](C)(CC(=O)N(C)C)C5)cn4)ncc3F)cc2n1C(C)C [Compound A55, (R)-2-(4-((6-((5-fluoro-4-(4-fluoro-1-isopropyl-2-methyl-1H-benzo[d]imidazol-6-yl)pyrimidin-2-yl)amino)pyridin-3-yl)methyl)-2-methylmorpholin-2-yl)-N,N-dimethylacetamide]	4.33	26.03
15.8	200	390	0.46	2.6	0.09	70	94000	55.2	–	Cc1nc2c(F)cc(-c3nc(Nc4ccc(CN5CCO[C@@](C)(C[C@@H](C)N(C)C)C5)cn4)ncc3F)cc2n1C(C)C [Compound A28, N-(5-(((S)-2-((R)-2-(dimethylamino)propyl)-2-methylmorpholino)methyl)pyridin-2-yl)-5-fluoro-4-(4-fluoro-1-isopropyl-2-methyl-1H-benzo[d]imidazol-6-yl)pyrimidin-2-amine methanesulfonate]	5.23	6.78
128 (≈ 76.1 µg/mL)	200 (≈ 119 µg/mL)	970	1.76	11.3	2.35	170	30900	4.24	–	CC(=O)N(C)CC[C@]1(C)CN(Cc2ccc(Nc3ncc(F)c(-c4cc(F)c5nc(C)n(C(C)C)c5c4)n3)nc2)CCO1 [Compound A8, (R)—N-(2-(4-((6-((5-fluoro-4-(4-fluoro-1-isopropyl-2-methyl-1H-benzo[d]imidazol-6-yl)pyrimidin-2-yl)amino)pyridin-3-yl)methyl)-2-methylmorpholin-2-yl)ethyl)-N-methylacetamide]	5.64	11.87
140 (≈ 81.2 µg/mL)	200 (≈ 116 µg/mL)	770	1.73	8.63	0.03	130	51500	89.4	–	Cc1nc2c(F)cc(-c3nc(Nc4ccc(CN5CCO[C@](C)(C[C@@H](C)N(C)C)C5)cn4)ncc3F)cc2n1C(C)C [Compound A26]	6.10	39.08
–	199 (≈ 112 µg/mL)	1000	1.46	10.1	0.7	210	21200	3.51	–	CNC(=O)C[C@]1(C)CN(Cc2ccc(Nc3ncc(F)c(-c4cc(F)c5nc(C)n(C(C)C)c5c4)n3)nc2)CCO1 [Compound A59, (R)-2-(4-((6-((5-fluoro-4-(4-fluoro-1-isopropyl-2-methyl-1H-benzo[d]imidazol-6-yl)pyrimidin-2-yl)amino)pyridin-3-yl)methyl)-2-methylmorpholin-2-yl)-A-methylacetamide]	4.76	25.3
15.6 (≈ 8.57 µg/mL)	200 (≈ 110 µg/mL)	870	0.52	3.55	0.05	80	35800	202	–	CNCC[C@@]1(C)CN(Cc2ccc(Nc3ncc(F)c(-c4cc(F)c5nc(C)n(C(C)C)c5c4)n3)nc2)CCO1 [Compound A22, (S)-5-fluoro-4-(4-fluoro-1-isopropyl-2-methyl-1H-benzo[d]imidazol-6-yl)-N-(5-((2-methyl-2-(2-(methylamino)ethyl)morpholino)methyl)pyridin-2-yl)pyrimidin-2-amine]	10.57	15.58
